Calls of active or inactive are those of the source. The calls are words filed in the database; no cut-off is given here.
Tests used:
SOX2 promoter DNA [1] = test: Binding affinity to SOX2 promoter 5'-CTTTGTT-3' DNA in human SW620 cells assessed as downregulation SALL4 mRNA expression incubated for 48 hrs by qRT-PCR analysis; format: cell-based; details: SW-620
SW-620 [2] = test: Cell cycle arrest in human SW620 cells assessed as increase in accumulation at sub-G1/G1 phase at 2 uM to 5 uM after 48 hrs by propidium iodide staining based flow cytometry analysis; format: functional
SOX2 promoter DNA [3] = test: Binding affinity to SOX2 promoter 5'-CTTTGTT-3' DNA (unknown origin) transfected in human SW620 cells at 2 to 10 uM incubated for 24 hrs by 6xO/s-Luc reporter gene based Steady-Glo luciferase assay; format: cell-based; details: SW-620
SOX2 promoter DNA [4] = test: Binding affinity to SOX2 promoter 5'-CTTTGTT-3' DNA in mouse B16 cells assessed as reduction in SOX2 mRNA expression incubated for 48 hrs by qRT-PCR analysis; format: cell-based
SOX2 promoter DNA [5] = test: Binding affinity to SOX2 promoter 5'-CTTTGTT-3' DNA in mouse Hepa1 cells assessed as reduction in SOX2 mRNA expression incubated for 48 hrs by qRT-PCR analysis; format: cell-based
SOX2 promoter DNA [6] = test: Binding affinity to SOX2 promoter 5'-CTTTGTT-3' DNA in human MKN45 cells assessed as reduction in SOX2 protein level incubated for 48 hrs by immunostaining based FACS analysis; format: cell-based; details: MKN-45
SW-620 [7] = test: Antiinvasive activity in human SW620 cells assessed as reduction in cell invasion at 5 uM incubated for 72 hrs by crystal violet staining based assay relative to untreated control; format: functional
SOX2 promoter DNA [8] = test: Binding affinity to SOX2 promoter 5'-CTTTGTT-3' DNA in human SW620 cells assessed as down regulation of stemness associated KLF4 mRNA expression at 2 uM incubated for 48 hrs by qRT-PCR analysis; format: cell-based; details: SW-620
SOX2 promoter DNA [9] = test: Binding affinity to SOX2 promoter 5'-CTTTGTT-3' DNA in human SW620 cells assessed as down regulation of POU5F1 gene expression at 2 uM incubated for 48 hrs by Cy3-labelled cRNA-based microarray analysis; format: cell-based; details: SW-620
SOX2 promoter DNA [10] = test: Binding affinity to SOX2 promoter 5'-CTTTGTT-3' DNA in human SW620 cells assessed as down regulation of Cyclin D1 mRNA expression at 2 uM incubated for 48 hrs by qRT-PCR analysis; format: cell-based; details: SW-620
SOX2 promoter DNA [11] = test: Binding affinity to SOX2 promoter 5'-CTTTGTT-3' DNA in human SW620 cells assessed as down regulation of […] mRNA expression at 2 uM incubated for 48 hrs by qRT-PCR analysis; format: cell-based; details: SW-620
SOX2 promoter DNA [12] = test: Binding affinity to SOX2 promoter 5'-CTTTGTT-3' DNA in human SW620 cells assessed as down regulation of ZEB2 mRNA expression at 2 uM incubated for 48 hrs by qRT-PCR analysis; format: cell-based; details: SW-620
SOX2 promoter DNA [13] = test: Binding affinity to SOX2 promoter 5'-CTTTGTT-3' DNA in human SW620 cells assessed as down regulation of NFKB1 mRNA expression at 2 uM incubated for 48 hrs by qRT-PCR analysis; format: cell-based; details: SW-620
SOX2 promoter DNA [14] = test: Binding affinity to SOX2 promoter 5'-CTTTGTT-3' DNA in human SW620 cells assessed as up regulation of CDH1 mRNA expression at 2 uM incubated for 48 hrs by qRT-PCR analysis; format: cell-based; details: SW-620
SOX2 promoter DNA [15] = test: Binding affinity to SOX2 promoter 5'-CTTTGTT-3' DNA in human SW620 cells assessed as down regulation of stemness associated PTCH1 mRNA expression at 2 uM incubated for 48 hrs by qRT-PCR analysis; format: cell-based; details: SW-620
SOX2 promoter DNA [16] = test: Binding affinity to SOX2 promoter 5'-CTTTGTT-3' DNA in human SW620 cells assessed as down regulation of stemness associated BMP-4 mRNA expression at 2 uM incubated for 48 hrs by qRT-PCR analysis; format: cell-based; details: SW-620
SOX2 promoter DNA [17] = test: Binding affinity to SOX2 promoter 5'-CTTTGTT-3' DNA in human SW620 cells assessed as downregulation DVL2 mRNA expression incubated for 48 hrs by qRT-PCR analysis; format: cell-based; details: SW-620
SOX2 promoter DNA [18] = test: Binding affinity to SOX2 promoter 5'-CTTTGTT-3' DNA in human SW620 cells assessed as upregulation of GSK3-beta mRNA expression incubated for 48 hrs by qRT-PCR analysis; format: cell-based; details: SW-620
SOX2 promoter DNA [19] = test: Binding affinity to SOX2 promoter 5'-CTTTGTT-3' DNA in human SW620 cells assessed as upregulation of APC mRNA expression incubated for 48 hrs by qRT-PCR analysis; format: cell-based; details: SW-620
SW-620 [20] = test: Antiproliferative activity against human SW620 cells assessed as inhibition of cell proliferation incubated for 48 hrs by [3H]thymidine incorporation based scintillation counting method; format: functional
MCF7 = test: Antiproliferative activity against human MCF7 cells assessed as inhibition of cell proliferation incubated for 48 hrs by [3H]thymidine incorporation based scintillation counting method; format: functional
SW-620 [21] = test: Cell cycle arrest in human SW620 cells assessed as reduction in accumulation at S phase at 2 uM to 5 uM after 48 hrs by propidium iodide staining based flow cytometry analysis; format: functional
U2OS [22] = test: Cell cycle arrest in human U2OS cells assessed as reduction in accumulation at S phase at 2 uM to 5 uM after 48 hrs by propidium iodide staining based flow cytometry analysis; format: functional
MKN-45 = test: Cell cycle arrest in human MKN45 cells assessed as reduction in accumulation at G2/M phase at 2 uM to 5 uM after 48 hrs by propidium iodide staining based flow cytometry analysis; format: functional
U2OS [23] = test: Cell cycle arrest in human U2OS cells assessed as reduction in accumulation at G2/M phase at 2 uM to 5 uM after 48 hrs by propidium iodide staining based flow cytometry analysis; format: functional
SOX2 promoter DNA [24] = test: Binding affinity to SOX2 promoter 5'-CTTTGTT-3' DNA in human SW620 cells assessed as down regulation of GRB2 mRNA expression incubated for 48 hrs by qRT-PCR analysis; format: cell-based; details: SW-620
U2OS [25] = test: Cytotoxicity against human U2OS cells assessed as reduction in cell viability incubated for 48 hrs by MTT assay; format: functional, cell-based
SW-620 [26] = test: Up regulation of p27kip1 mRNA expression in human SW620 cells incubated for 48 hrs by qRT-PCR analysis; format: functional, cell-based
SW-620 [27] = test: Up regulation of TP73 mRNA expression in human SW620 cells incubated for 48 hrs by qRT-PCR analysis; format: functional, cell-based
SW-620 [28] = test: Up regulation of PUMA mRNA expression in human SW620 cells incubated for 48 hrs by qRT-PCR analysis; format: functional, cell-based
SW-620 [29] = test: Up regulation of GADD45A mRNA expression in human SW620 cells incubated for 48 hrs by qRT-PCR analysis; format: functional, cell-based
SW-620 [30] = test: Up regulation of FAS mRNA expression in human SW620 cells incubated for 48 hrs by qRT-PCR analysis; format: functional, cell-based
SW-620 [31] = test: Up regulation of FASL mRNA expression in human SW620 cells incubated for 48 hrs by qRT-PCR analysis; format: functional, cell-based
SW-620 [32] = test: Up regulation of caspase-3 mRNA expression in human SW620 cells incubated for 48 hrs by qRT-PCR analysis; format: functional, cell-based

With `CC(=O)Nc1cc(C(=O)Nc2cc(C(=O)Nc3cc(C(=O)NCCC(=O)Nc4cn(C)c(C(=O)Nc5cc(C(=O)NCCCC(=O)Nc6cc(C(=O)Nc7cc(C(=O)NCCC(=O)Nc8cc(C(=O)Nc9cc(C(=O)Nc%10cn(C)c(C(=O)NCCCN(C)C)n%10)n(C)c9)n(C)c8)n(C)c7)n(C)c6)n(C)c5)n4)n(C)c3)n(C)c2)n(C)c1` the Activity (SOX2 promoter DNA [1]) was “Active”, the Activity (SW-620 [2]) was “Active” and the Activity (SOX2 promoter DNA [3]) was “Active”. For the same compound, the Activity (SOX2 promoter DNA [4]) was “Active”, the Activity (SOX2 promoter DNA [5]) was “Active” and the Activity (SOX2 promoter DNA [6]) was “Dose-dependent effect”. For the same compound, the “fold change (FC)” value (SW-620 [7]) was 4, the Activity (SOX2 promoter DNA [8]) was “Active” and the Activity (SOX2 promoter DNA [9]) was “Active”. For the same compound, the Activity (SOX2 promoter DNA [10]) was “Active”, the Activity (SOX2 promoter DNA [11]) was “Active” and the Activity (SOX2 promoter DNA [12]) was “Active”. For the same compound, the Activity (SOX2 promoter DNA [13]) was “Active”, the Activity (SOX2 promoter DNA [14]) was “Active” and the Activity (SOX2 promoter DNA [15]) was “Active”. For the same compound, the Activity (SOX2 promoter DNA [16]) was “Active”, the Activity (SOX2 promoter DNA [17]) was “Active” and the Activity (SOX2 promoter DNA [18]) was “Active”. The Activity (SOX2 promoter DNA [19]) was “Active”, the inhibition (SW-620 [20]) was “Dose-dependent effect” and the inhibition (MCF7) was “Dose-dependent effect”. The Activity (SW-620 [21]) was “Active”, the Activity (U2OS [22]) was “Active” and the Activity (MKN-45) was “Active”. For the same compound, the Activity (U2OS [23]) was “Active”, the Activity (SOX2 promoter DNA [24]) was “Active” and the Activity (U2OS [25]) was “Dose-dependent effect”. The Activity (SW-620 [26]) was “Active”, the Activity (SW-620 [27]) was “Active” and the Activity (SW-620 [28]) was “Active”. For the same compound, the Activity (SW-620 [29]) was “Active”, the Activity (SW-620 [30]) was “Active” and the Activity (SW-620 [31]) was “Active”. For the same compound, the Activity (SW-620 [32]) was “Active”.

From ChEMBL document CHEMBL4616595, “Targeted suppression of metastasis regulatory transcription factor SOX2 in various cancer cell lines using a sequence-specific designer pyrrole-imidazole polyamide” (Bioorg Med Chem, 2020)
